Among the data in patent US6335339B1, “Triazine antiviral compounds” (Scriptgen Pharmaceuticals, Inc., priority 1998, dated 2002) are CC50 values, retold here.

The series in a line: neutral red dye uptake cytotoxicity. The series is classed as cell-based. The note with it: human, 2.2.15 cells (confluent cultures), 9 days treatment, read-out: 50% Cell Death CC50. In short, it runs like this: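 Confluent 2.2.15 cultures, same conditions as antiviral assay, treated daily for 9 days with 4 concentrations (3.3-fold dilutions), triplicate wells. 24 hours after the final dose, cells stained 30 minutes with 0.01% neutral red, dye extracted and A510 read; values as % of untreated cultures, CC50 as 50% cell death.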

Turning to `CC(C)(C)Nc1nc(NCc2ccccc2)nc(N/N=C/c2ccccc2F)n1` [Compound 93, 2-fluorobenzaldehyde N-[4-(benzylamino)-6-(tert-butylamino)-1,3,5-triazin-2-yl]hydrazone], the CC50 at 9 days came out at 54 µM.
